Structures are written as SMILES. Where only a bound is given, the exact number is not on record here.

The subject of one experiment is anaesthetized cat. Description: Effect on blood pressure and adrenaline vasopressure response in anaesthetized cat, i.v. (Table 2). It is filed as in vivo. The conditions noted are these: for inhibition at 2 µmol/kg / inhibition at 10 µmol/kg: Felis catus, iv. As to the method: (§1) (a) Cats (2.6-4.0 kg) of either sex anaesthetized with pentobarbitone sodium (40 mg/kg i.v.) and showing basal mean arterial blood plessure below 150 mm (Hg) were categorised as normotensive and ahove 150 mm Hg as hypertensive. Arterial blood pressure (EP) was recorded from one of the carotid artery through a stathum P23 DC pressure transducer and 7P1 low level DC preamplifier on a Grass Model P7 Polygraph, Signals from 7P1 preamplifier were used to trigger 7P4 Tachograph preamplifier for recording the heart rate (HR). Right femoral vein and Trachea were cannulated for intravenous injections and artificial ventilation respectively. Control responses to intravenous injection of noradrenaline (2-4 ug); acetyl choline (1-2 ug); histamine (1-2 ug) and isoprenaline (1-2 ug) were taken before and after the administration of test doses of each compounds.

Experiment [1] has as its system Langendorff perfused rat heart. The experiment in a line: Compound at reperfusion after brief (16 min.) ischemic insult (Table 3). The conditions noted are these: 0.001 ug/ml at reperfusion.
A short description of experiment [2]: Cardioprotective effect against myocardial stunning. Conditions: in vivo.
Experiment [3] relates to cat. The experiment in a line: Comparative antihypertensive effect with clinically used antihypertensive drugs at 2 uMol/kg i.v. in cat. It is filed as in vivo.
Excerpt: (4) Comparative antihypertensive effect with clinically used antihypertensive drugs at 2 uMol/kg i.v. dose in cat
The subject of experiment [4] is Isolated Guinea pig ileum. The experiment in a line: Isolated Guinea pig ileum preparation, antihistaminic activity. The conditions noted are these: 0.5-5.0 ug/ml.
A further experiment deals with Spinal transected cat. Description: Site of action: spinal transected cat. It is filed as in vivo. Conditions: dose 2-10 umol/kg i.d.
In a further experiment the test system is Isolated aortic strip. The experiment in a line: Isolated aortic strip, endothelin induced contraction. The source says:
(i) Isolated aortic strip:

In experiment [5] the test system is Langendorff perfused rat heart. Description: Langendorff perfused rat heart, prolonged global ischemia, compound given at reperfusion (Table 1). As to the method: Further, in Langendorff perfused rat heart preparation subjected to even upto […]. global ischemia, the compound at 0.001 ug/ml conc. given at the time of reperfusion revived normal rhythmic contraction started within […]. (Table 1) and incidence of reperfusion induced arrhythmia were abolished.

The test system of experiment [6] is histamine induced bronchoconstriction. The experiment in a line: Konzett and Rossler preparation, histamine induced bronchoconstriction. Conditions: in vivo. The source says: (iv) Konzett and Rossler preparation:
Experiment [7] deals with Hypertensive rat model preparation. Description: Effect on blood pressure, heart rate and adrenaline vasopressor response, hypertensive rat model preparation. It is filed as in vivo. The method, then: (§2) 2. Effect on blood pressure, heart rate and adrenaline vasopressor response of anaesthetized (pentobarbitone sodium 40 & 60 mg/kg i.p. in cat and rat respectively) normotensive & hypertensive rat & cat model preparations.

Another experiment in a line: Site of action: ICV. The conditions noted are these: dose 0.34-1.36. It is filed as in vivo.
For experiment [8], the system named is Naturally occurring hypertensive cat. The experiment in a line: Effect on blood pressure, heart rate and adrenaline vasopressor response, anaesthetized naturally occurring hypertensive cat. It is filed as in vivo. As to the method: as §2, §1
In experiment [9] the test system is cat. The experiment in a line: In vivo drug antagonism studies at 2 uMol dose i.v. in cat. Conditions: 2 uMol i.v. The source says: (B) In viva Drug antagonism studies at 2 uMol dose i.v. in cat: […]
In another experiment the test system is Rat aortic ring. The experiment in a line: Rat aortic ring preparation, NE induced contraction. The source says:
(v) Rat aortic ring preparation:

In another experiment the test system is Normotensive cat. The experiment in a line: Effect on blood pressure, heart rate and adrenaline vasopressor response, anaesthetized normotensive cat. Type of experiment: in vivo. As to the method:
as §2, §1

Where [10] appears, read: 0.001 ug/ml at reperfusion, 90 min. ischemic insult.
[11] abbreviates: 10^-6 M, ischemic insult 45 min.

As for `O=C1CCCN1CCCN1CCN(c2ccccn2)CC1` [2-Pyridyl, n=1], in the experiment on anaesthetized cat (2.0 umol/kg i.v.), the “Dur.” value was found to be 16 min and the inhibition at 2 µmol/kg is 40%. Further, in the experiment on anaesthetized cat (10.0 umol/kg i.v.), the “Dur.” value is 43 min and the inhibition at 10 µmol/kg was -20 to 0%. For the same molecule, in experiment [1], the “Onset” value is 2.0 min, the “Percentage recovery 15 min.” value amounted to 47.60% and the “Percentage recovery 30 min.” value was found to be 71.40%.

In the case of `COc1ccccc1N1CCN(CCCN2CCCC2=O)CC1` [C6 H4-2-OCH3, n=1], in the experiment on anaesthetized cat (2.0 umol/kg i.v.), the “Dur.” value stood at 19 min and the inhibition at 2 µmol/kg came out at 47%. Further, in the experiment with anaesthetized cat (10.0 umol/kg i.v.), the “Dur.” value came to 67 min and the inhibition at 10 µmol/kg was more than 100%. Also, in experiment [1], the “Onset” value was found to be 2.0 min, the “Percentage recovery 15 min.” value is 45.40% and the “Percentage recovery 30 min.” value came to 59.09%.

Take `O=C1CCCN1CCCN1CCN(c2cccc(Cl)c2)CC1` [Example 2, 1-[4-(3-chlorophenyl)piperazin-1-yl]-3-[2-oxopyrrolidin-1-yl]propane]: in experiment [1] (listed as C6 H4 -3-C1, n=1), the “Percentage recovery 15 min.” value is listed as 50.00% and the “Percentage recovery 30 min.” value is 88.80%. Also, in [1] (listed as C6 H4 -3-Cl, n=1), the “Onset” value turned out to be 3.0 min, the “Percentage recovery 15 min.” value was determined as 31.50% and the “Percentage recovery 30 min.” value was determined as 39.40%.

Turning to `O=C1CCCN1CCCN1CCN(c2ccc(Cl)cc2)CC1` [Example 3, 1-[4-(4-chlorophenyl)piperazin-1-yl]-3-[2-oxopyrrolidin-1-yl]propane], in [1], the “Percentage recovery 15 min.” value was 87.50% and the “Percentage recovery 30 min.” value is recorded as 120.80%.

For `O=C1CCCN1CCCN1CCN(c2cccc(F)c2)CC1` [Example 4, 1-[4-(3-fluorophenyl)piperazin-1-yl)-3-[2-oxopyrrolidin-1-yl]propane], in [1], the “Percentage recovery 15 min.” value stood at 120.00% and the “Percentage recovery 30 min.” value is 180.00%.

Turning to `O=C1CCCN1CCCN1CCN(c2ccc(F)cc2)CC1` [Example 5, 1-[4-(4-fluorophenyl)piperazin-1-yl]-3-[2-oxopyrrolidin-1-yl]propane], the “cardioprotective effect against myocardial stunning” value in [2] is “cardioprotective effect against myocardial stunning at a much smaller dose than antihypertensive dose”. Further, the “Dur.” value in the experiment on cat [3] is 25 min. Moreover, the antihistaminic activity result in [4] is listed as “significant antihistaminic activity”. Moreover, the “Percentage recovery 15 min.” value in [1] and in [5] (setting [10]) was 81.25% in each case. Also, the “Percentage recovery 30 min.” value in experiment [1] was found to be 78.12%; in [5] (setting [10]) it was 87.15%. The “B.P. Fall (%)” value with Spinal transected cat is listed as 14-18%; in [7] (5 uMol/kg i.d.), 27%; in [7] (10 uMol/kg i.d.), 22%; in [7] (20 uMol/kg i.d.) it was 29%; in the experiment “Site of action: ICV”, 8-10%; in experiment [8] (10 uMol/kg i.d.), 16%. For the same molecule, the “B.P. Fall (%)” value worked out at 22% in experiment [8] (20 uMol/kg i.d.), 22% in the experiment on Normotensive cat (10 uMol/kg i.d.) and 21% in the experiment with Normotensive cat (20 uMol/kg i.d.). Further, the “B.P. fall Dur.” value with Spinal transected cat is 15 to 30 min; in experiment [7] (5 uMol/kg i.d.), 51 min; in experiment [7] (10 uMol/kg i.d.), 76 min; in experiment [7] (20 uMol/kg i.d.), 100 min; in the experiment “Site of action: ICV”, 10 to 15 min; in [8] (10 uMol/kg i.d.) it was 110 min. The entries for the “B.P. fall Dur.” value (in [8] (20 uMol/kg i.d.); in the experiment on Normotensive cat (10 uMol/kg i.d.); with Normotensive cat (20 uMol/kg i.d.)) were more than 156.75 min, 85 min and more than 102.5 min, respectively. The Endothelin induced contraction result in the experiment on Isolated aortic strip is “inhibited significantly”. Besides, in the experiment on Isolated aortic strip (after washing), the “Response to endothelin after washing the preparation” value is reported as “relaxation rather than contraction”. In addition, the “incidence of reperfusion induced arrhythmia” value in [5] (0.001 ug/ml at reperfusion, up to 90 min global ischemia) is given as “abolished”. Also, the “antihistaminic activity against histamine induced bronchoconstriction” value in experiment [6] was “some antihistaminic activity”. In [7] (5 uMol/kg i.d.), the Heart rate Pre treatment was determined as 350 beats/min. This molecule had a Heart rate post treatment in experiment [7] (5 uMol/kg i.d.) of 370 beats/min. For the same molecule, in the experiment on cat [9] (pretreatment with KATP blocker glibenclamide), the “reduction of the fall in pressure” value is listed as “only partially reduced”. Further, the “alteration of antihypertensive effect” value with cat [9] (pretreatment with atropine sulphate, mepyramine maleate, propranolol or yohimbine) is “failed to alter”. In addition, the NE induced contraction entry with Rat aortic ring was “inhibited”.

On to `CCc1ccc(N2CCN(CCCN3CCCC3=O)CC2)cc1` [Example 6, 1-[4-(4-ethylphenyl)piperazin-1-yl]-3-[2-oxopyrrolidin-1-yl]propane], for which, in experiment [1], the “Percentage recovery 15 min.” value is 103.03% and the “Percentage recovery 30 min.” value worked out at 60.60%.

For `CCc1ccccc1N1CCN(CCCN2CCCC2=O)CC1` [Example 7, 1-[4-(2-ethylphenyl)piperazin-1-Yl]-3-[2-oxopyrrolidin-1-yl]propane], in experiment [1], the “Percentage recovery 15 min.” value stood at 106.06% and the “Percentage recovery 30 min.” value came out at 136.36%.

Take `O=C1CCCCN1CCCN1CCN(c2cccc(C(F)(F)F)c2)CC1` [Example 14, 1-[4-(3-trifluoromethylphenyl)piperazin-1-yl]-3-[2-oxopiperidin-1-yl]propane]: the “Dur. (min.)” value in the experiment on anaesthetized cat (10.0 umol/kg i.v.) is listed as “Tr”.

With `COC(=O)C1=C(C)NC(C)=C(C(=O)OC)C1c1ccccc1[N+](=O)[O-]` [Nifedipine, reference compound], in experiment [5] (setting [11]), the “Percentage recovery 15 min.” value was 0.66% and the “Percentage recovery 30 min.” value was determined as 0.0%.

What is called inhibition is the drop in the measured response relative to a control, in per cent.

The record behind these values is patent US6150367A, “1-[4-arylpiperazin-1-yl]-3-[2-oxopyrrolidin/piperidin-1-yl]propanes and their use in medical treatments” (Council of Scientific & Industrial Research, priority 1997, dated 2000).
